Data published in the METLIN SMRT retention time set (Domingo-Almenara et al. 2019).

Assay: gradient 5% acetonitrile 3 min, to 50% in 2 min, to 85% in 15 min, held 3 min, 100 µL/min
Details: column: Zorbax Extend-C18 2.1 x 50 mm; eluents: water / acetonitrile, 0.1% formic acid
Outline: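 Each retention time is based on an adduct peak selected computationally and verified by manual inspection. Measurements used HPLC–quadrupole time-of-flight mass spectrometry in positive and negative ionization mode on mixtures of ~100 pure standards. Chromatography ran on a Zorbax Extend-C18 column (2.1 × 50 mm, 1.8 μm) at 100 μL/min with water and acetonitrile, each containing 0.1% formic acid, and dead and dwell volumes of 40 μL and 900 μL.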

Structure (SMILES): O=C(C1CC1)N1CCc2ccc(NS(=O)(=O)C3CCCCC3)cc21
- RP-LC retention time: 830 s

Structure (SMILES): OC[C@@H]1CNC[C@H]1C1CCN(Cc2cccc(Cl)c2F)CC1
- RP-LC retention time: 806 s

Structure (SMILES): CCn1ccc(C(=O)Nc2c3c(nn2C)CCC3)n1
- RP-LC retention time: 621 s

Structure (SMILES): COC(=O)c1cnc2nc(C)ccc2c1Nc1ccc(Cl)cc1
- RP-LC retention time: 705 s

Structure (SMILES): CCCC(=O)Nc1ccc2c(c1)CN(C(=O)c1c(F)cccc1Cl)C(C(=O)N(C)C)C2 (centres undefined)
- RP-LC retention time: 727 s

Structure (SMILES): Cn1nc(-c2nc(C3CC3)no2)c2c1CCN(S(=O)(=O)c1cccc(Cl)c1)C2
- RP-LC retention time: 1000 s

Structure (SMILES): Fc1cccc(N2CC3(CCNCC3)C2c2ccccc2)c1 (centres undefined)
- RP-LC retention time: 721 s

Structure (SMILES): CCc1ccc(NC(=O)Cn2c(=O)c3cc(-c4ccco4)nn3c3ncccc32)cc1
- RP-LC retention time: 882 s

Structure (SMILES): CCCCCC(=O)Nc1cc(-c2nc3ccc(C)cc3[nH]2)ccc1C
- RP-LC retention time: 750 s

Structure (SMILES): O=C(Nc1sc2c(c1CN1CCN(c3ccccn3)CC1)CCCC2)c1ccco1
- RP-LC retention time: 671 s

Structure (SMILES): CCc1nc2cc(-c3noc(/C=C/c4ccc(OC)c(OC)c4)n3)ccc2o1
- RP-LC retention time: 1140 s

Structure (SMILES): Cc1sc(-c2cc(C(F)(F)F)on2)cc1S(=O)(=O)Nc1cccc(Cl)c1
- RP-LC retention time: 1180 s

Structure (SMILES): COc1cccc(NC(=O)Cn2nc3c(N4CCCCCC4)nccn3c2=O)c1
- RP-LC retention time: 700 s

Structure (SMILES): O=C(c1cccc(N2CCNC(c3ccccc3)C2)n1)N1CCCN(c2ncccn2)CC1 (centres undefined)
- RP-LC retention time: 609 s

Structure (SMILES): O=C(NCCC1=CCCCC1)C1CCCN(c2cnc3nccnc3c2)C1 (centres undefined)
- RP-LC retention time: 766 s

Structure (SMILES): COc1ccc(CC(=O)Nc2c(-c3ccc(F)cc3)nc3ccccn23)cc1
- RP-LC retention time: 645 s

Structure (SMILES): CCn1c(=O)n(CC)c2cc(S(=O)(=O)c3ccc(C)cc3)c(NC(=O)C3CC3)cc21
- RP-LC retention time: 873 s

Structure (SMILES): COc1ccc(NC(=O)N2CC(C)Oc3ccc(C)cc32)cc1 (centres undefined)
- RP-LC retention time: 945 s

Structure (SMILES): NC(=O)Cc1csc(NC(=O)COc2ccc3c(c2)C(=O)CC3)n1
- RP-LC retention time: 600 s

Structure (SMILES): CCn1cc(S(=O)(=O)N2CCCC(n3c(C)cnc3-c3ccccc3)C2)cn1 (centres undefined)
- RP-LC retention time: 639 s

Structure (SMILES): COc1ccc(C2C(C(=O)NCCCN3CCOCC3)CCC(=O)N2c2ccc(OC)cc2)cc1 (centres undefined)
- RP-LC retention time: 580 s

Structure (SMILES): CCOC(=O)c1cnc2ccc(OCC)cc2c1N1CCN(c2ccccc2)CC1
- RP-LC retention time: 930 s

Structure (SMILES): CCOc1ccc2c(n1)CCN(C(=O)Nc1ccc(C)cc1C)C2
- RP-LC retention time: 852 s

Structure (SMILES): CNC(=O)N1CCCC(c2cccc(C(=O)N3CCN(c4ccc(Cl)cc4)CC3)c2)C1 (centres undefined)
- RP-LC retention time: 864 s

Structure (SMILES): CCn1ccc(-c2nc(-c3cccc(-c4csc(C5CC5)n4)c3)no2)n1
- RP-LC retention time: 1220 s

Structure (SMILES): CC(C)c1noc(C2(NC(=O)c3ccc(Cl)cc3)CCCCC2)n1
- RP-LC retention time: 1100 s

Structure (SMILES): O=C(NCc1ccc(F)cc1)c1ccc(-c2ccsc2)nc1
- RP-LC retention time: 854 s

Structure (SMILES): O=C(NCC1CCCO1)c1nc(-c2ccc(N3CCCC3)cc2)no1 (centres undefined)
- RP-LC retention time: 982 s

Structure (SMILES): COC(=O)c1c(C)[nH]c(C(=O)N2CCCC(C(=O)N3CCCCCC3)C2)c1C (centres undefined)
- RP-LC retention time: 723 s

Structure (SMILES): Cc1cc(C)cc(N2C(=O)N(CC(=O)N3CCOc4ccc(C)cc43)C3CS(=O)(=O)CC32)c1 (centres undefined)
- RP-LC retention time: 962 s

Structure (SMILES): O=C(c1ccc(OCC2CCCN2C(=O)c2ccc(F)cc2F)cc1)N1CCOCC1 (centres undefined)
- RP-LC retention time: 723 s

Structure (SMILES): O=C(Nc1ccc(F)cc1F)N1CCCC1c1nc(-c2ccc(F)cc2F)no1 (centres undefined)
- RP-LC retention time: 946 s

Structure (SMILES): COc1ccc(Br)cc1CNC(=O)Cn1cnc2nc3c(cc2c1=O)CCCC3
- RP-LC retention time: 777 s

Structure (SMILES): Cc1sc(NC(=O)c2cccs2)nc1-c1ccc2c(c1)N(C)C(=O)CO2
- RP-LC retention time: 942 s

Structure (SMILES): O=C(Cc1c[nH]c2ccccc12)N1CCC(NS(=O)(=O)c2ccc(Cl)cc2)CC1
- RP-LC retention time: 829 s

Structure (SMILES): CCN1C(=O)C2CC3(CCN(C(=O)c4ccoc4)CC3)CN2C1=O (centres undefined)
- RP-LC retention time: 628 s

Structure (SMILES): CCCCC(=O)Nc1cnc(N2CCNCC2)c(C(=O)N2CCCCC2C)c1 (centres undefined)
- RP-LC retention time: 619 s

Structure (SMILES): COc1cc2nc(N3CCCN(C)CC3)nc(NC3CCN(Cc4ccccc4)CC3)c2cc1OC
- RP-LC retention time: 609 s

Structure (SMILES): CCc1nnc(NC(=O)c2ccc(-c3ccccc3Cl)o2)s1
- RP-LC retention time: 906 s

Structure (SMILES): Cc1nc(-c2noc(-c3ccc(F)cc3)n2)cn1CC(=O)Nc1ccccc1
- RP-LC retention time: 836 s

Structure (SMILES): Cc1oc(-c2[nH]ncc2C(=O)N(C)C)cc1S(=O)(=O)N1CCN(CC(C)C)CC1
- RP-LC retention time: 580 s

Structure (SMILES): O=S(=O)(Cc1ccccc1F)N1CCC[C@H]1c1nc(-c2ccc(F)cc2)n[nH]1
- RP-LC retention time: 837 s

Structure (SMILES): CCOc1cc(C(=O)Nc2c(-c3ccc(F)cc3)nc3cc(C)ccn23)cc(OCC)c1OCC
- RP-LC retention time: 819 s

Structure (SMILES): Cc1ccc2nc(SCC(=O)N3CCCCC3)[nH]c2c1
- RP-LC retention time: 590 s

Structure (SMILES): Cc1ccc(Nc2c(-c3ccc([N+](=O)[O-])cc3)nc3ccc(Cl)cn23)cc1
- RP-LC retention time: 1100 s

Structure (SMILES): Cc1c(OCC(N)=O)ccc2c1O/C(=C\c1ccc3c(c1)OCO3)C2=O
- RP-LC retention time: 714 s

Structure (SMILES): Cc1nn(-c2ccc(F)cc2)c(C)c1S(=O)(=O)N1CCN(c2ccccn2)CC1
- RP-LC retention time: 683 s

Structure (SMILES): CN(Cc1nc2ccccc2n1CC(=O)N1CCOCC1)C(=O)c1ccco1
- RP-LC retention time: 587 s

Structure (SMILES): COCCOC1CCN(S(=O)(=O)c2cccc(OC)c2)CC1
- RP-LC retention time: 811 s

Structure (SMILES): CCCN(CC1CCOC1)C(=O)Nc1ccccc1 (centres undefined)
- RP-LC retention time: 575 s

Structure (SMILES): Fc1ccc(C2Cn3nnc(-c4nc(-c5cccc(F)c5)no4)c3CO2)cc1 (centres undefined)
- RP-LC retention time: 1150 s

Structure (SMILES): O=C(CN1CCN(C(=O)Nc2ccc(Br)cc2)CC1=O)N1CCCCC1
- RP-LC retention time: 701 s

Structure (SMILES): CN(C)c1cc(N2CCCC(NC(=O)c3ccnn3C)C2)ncn1 (centres undefined)
- RP-LC retention time: 578 s

Structure (SMILES): O=C(c1nccc2ccccc12)N1CCCCC1c1nc(C2CC2)no1 (centres undefined)
- RP-LC retention time: 813 s

Structure (SMILES): Cc1noc(C)c1C1CCCN1C(=O)Cc1ccccc1Cl (centres undefined)
- RP-LC retention time: 806 s

Structure (SMILES): CC(NC(=O)c1ccco1)c1nc2ccccc2n1CC(=O)N(C)c1ccccc1 (centres undefined)
- RP-LC retention time: 694 s

Structure (SMILES): Cc1ccc(NS(=O)(=O)c2cc(-c3cc(C(F)(F)F)on3)sc2C)c(Cl)c1
- RP-LC retention time: 1220 s

Structure (SMILES): O=C(Cn1ccc2ccn(Cc3ccccc3)c2c1=O)NCc1cccs1
- RP-LC retention time: 872 s

Structure (SMILES): O=C(c1ccccc1)N1CCC(n2c(-c3ccoc3)nc3cccnc32)C1 (centres undefined)
- RP-LC retention time: 695 s

Structure (SMILES): COc1ccc(-c2nc3ccc(Cl)cn3c2Nc2ccc3c(c2)OCO3)cc1
- RP-LC retention time: 748 s

Structure (SMILES): CC(C)n1ccc(-c2nnc(NC(=O)COc3ccc(Cl)cc3Cl)o2)n1
- RP-LC retention time: 793 s

Structure (SMILES): Cc1ccn2cc(-c3ccc(NC(=O)c4cccc([N+](=O)[O-])c4)cc3)nc2n1
- RP-LC retention time: 652 s

Structure (SMILES): Cc1cccc(Cn2c(C)c(CNCc3ccco3)c(C(=O)O)c2C)c1
- RP-LC retention time: 697 s

Structure (SMILES): CCCN1C(=O)COc2ccc(-c3csc(NC(C)=O)n3)cc21
- RP-LC retention time: 806 s

Structure (SMILES): O=C(Nc1nc(-c2ccco2)cs1)C1COCC(=O)N1Cc1ccccc1 (centres undefined)
- RP-LC retention time: 729 s

Structure (SMILES): O=C(Cn1cnc2nc(N3CCCC(C(=O)NC4CC4)C3)sc2c1=O)Nc1ccccc1Cl (centres undefined)
- RP-LC retention time: 686 s

Structure (SMILES): Cn1nc(C(=O)NCc2ccc3c(c2)OCO3)c2c1CCN(C(=O)c1ccco1)C2
- RP-LC retention time: 725 s

Structure (SMILES): CC(C)(C)c1csc(-c2csc(S(=O)(=O)NCc3ccc4c(c3)OCO4)c2)n1
- RP-LC retention time: 1170 s

Structure (SMILES): Cc1ccc(S(=O)(=O)N2CCCC2C(=O)Nc2ccc(Br)cc2)cc1 (centres undefined)
- RP-LC retention time: 1020 s

Structure (SMILES): Cc1cccc2nnc(N3CCCN(C(=O)c4cccs4)CC3)n12
- RP-LC retention time: 541 s

Structure (SMILES): COc1ccccc1C(=O)N1CCCC1c1cc(C(C)C)on1 (centres undefined)
- RP-LC retention time: 831 s

Structure (SMILES): O=c1c2nnc3ccnn3c2ccn1CCc1c[nH]c2ccc(F)cc12
- RP-LC retention time: 709 s

Structure (SMILES): Cc1cccc(CS(=O)(=O)NCCCN2CCN(c3ccccc3)CC2)c1
- RP-LC retention time: 588 s

Structure (SMILES): Cc1ccc(NS(=O)(=O)c2cc3n(c2)CCCN(C)C3=O)cc1C
- RP-LC retention time: 720 s

Structure (SMILES): O=C(CCc1c(-c2ccc(Cl)cc2)nc2ccccn12)NCc1cccnc1
- RP-LC retention time: 570 s

Structure (SMILES): O=C(NC1CCN(c2cc(-c3ccc(Cl)cc3)[nH]n2)C1)c1ccccc1 (centres undefined)
- RP-LC retention time: 712 s

Structure (SMILES): CCOC(=O)c1nc(Nc2cc(Cl)ccc2C)c2ccccc2n1
- RP-LC retention time: 929 s

Structure (SMILES): CC(C)(C)c1ccc(OCC(=O)Nc2ccnn2Cc2ccco2)cc1
- RP-LC retention time: 1010 s

Structure (SMILES): Cc1ccc(NC(=O)N2CCC(CCNC(=O)C3(c4ccccc4)CC3)CC2)cc1F
- RP-LC retention time: 928 s

Structure (SMILES): COc1ccc(C(=O)N2CCC3(CC2)NC(=O)c2ccccc2N3C)cc1OC
- RP-LC retention time: 676 s

Structure (SMILES): COc1ccc(Cl)cc1S(=O)(=O)N1C[C@@H]2C[C@H]1C[C@@H]2NC(=O)c1ccccc1
- RP-LC retention time: 873 s

Structure (SMILES): CC1(C(=O)NCc2ccc(F)cc2)CN(S(C)(=O)=O)CC(=O)N1Cc1ccccc1Cl (centres undefined)
- RP-LC retention time: 848 s

Structure (SMILES): CCN1CCCCc2cc(C(=O)N(C)CC(=O)NC)sc21
- RP-LC retention time: 738 s

Structure (SMILES): O=C(Nc1cnc(N2CCOCC2)nc1)c1ccc(F)c(Cl)c1
- RP-LC retention time: 820 s

Structure (SMILES): CCOC(=O)c1sc(NC(=O)C2CCCCN2S(C)(=O)=O)cc1C (centres undefined)
- RP-LC retention time: 807 s

Structure (SMILES): COc1ccccc1NC(=O)c1cccc(N2CCNC(c3ccccc3)C2)n1 (centres undefined)
- RP-LC retention time: 693 s

Structure (SMILES): Cn1c(C(=O)NCCN2CCCCCC2)cc2c(-c3cccs3)nn(-c3ccccc3)c21
- RP-LC retention time: 782 s

Structure (SMILES): CCc1nc2cc(N3CCC(C(=O)NCc4ccc(N(C)C)cc4)CC3)cnc2nc1CC
- RP-LC retention time: 627 s

Structure (SMILES): O=C(Nc1nncs1)C1CCN(C(=O)c2ccccc2F)CC1
- RP-LC retention time: 641 s
